{
  "source": "patent US20100197610A1",
  "about": "“FRUCTOSE 1, 6 BISPHOSPHATE - A NOVEL ANTICONVULSANT DRUG” (Baylor College of Medicine, priority 2007, published 2010)",
  "key": {"[1]": {"test_system": "spontaneous seizures after pilocarpine-induced status epilepticus", "assay": "Oral FDP against spontaneous seizures after pilocarpine-induced status epilepticus", "format": "in vivo", "conditions": "FDP 0.5% in drinking water", "experimental": "Animals (n=14) were treated with pilocarpine to induce status epilepticus and subsequent spontaneous seizures. Four weeks later daily observation was begun and the number of seizures per day was determined for at least 6 days. The mean number of seizures per day over a 6 day period was determined for each animal and this was normalized to 100%. Half of the animals then had FDP added to the drinking water at a concentration of 0.5%. The number of seizures on each day was determined for each animal and calculated as percent of the baseline. The mean (±SEM) across animals in each treatment group was then calculated and plotted as a function of the days of treatment. […] Overall, the data was analyzed with a 2-way ANOVA comparing drug treatment against time and baseline rate of seizures. […] Post-hoc analysis determined that specifically on day 9 and 10 (*) the control was different than FDP-treated. Thus, oral administration of FDP has anticonvulsant activity against the generalized tonic-clonic seizures that are observed after pilocarpine-induced status epilepticus."}, "[2]": {"test_system": "PTZ-induced generalized tonic-clonic seizures", "assay": "PTZ model of acute seizures", "format": "in vivo, Sprague Dawley rats", "experimental": "All animal experiments were carried out in accordance with the National Institutes of Health guide for the care and use of laboratory animals (NIH publication 8023, revised 1996) and with the approval of the local Animal Use Committee. Unless indicated, all chemicals were obtained from Sigma Chemical Co (St. Louis Mo.). Male, Sprague Dawley rats weighing 50-74 g (young) or 147-309 g (adult) were used in this study. Acute seizures were induced by kainic acid (KA; Ocean Produce Int., Canada), pilocarpine or pentylenetetrazole (PTZ) as previously described (Lian et al 2006). These models were chosen because they initiate seizures by different mechanisms and the seizures have a relatively gradual onset compared to seizures initiated by stimulation. There was no difference in the body weight of the animals receiving the different convulsants. For pilocarpine, kainic acid and PTZ, the mean weights were 219±5 g (range 163-275 g), 215±7 g (range 183-258 g), and 216±13 g (range 147-309 g), respectively. The animals in the drug treatment groups were not different in weight from the animals in the control groups.\nAfter administration of KA (10 mg/kg, ip), pilocarpine (scopolamine methyl bromide 1 mg/kg, s.c followed 15 min later by 300 mg/kg, ip pilocarpine) or PTZ (50 mg/kg, ip) (Lian et al., 2006), animals were continuously monitored for seizure activity for at least 5 h after KA or pilocarpine and for 30 min after PTZ. Behavioral seizures were scored by an investigator blinded to the treatment. Latency to the first wet dog shake after KA, latency to the first forelimb clonus (after pilocarpine, kainic acid or PTZ) and the score and duration of seizures were measured. When at least 1 hour had passed without any head bobbing (for pilocarpine) or any wet dog shakes (for KA), seizures were considered over. Status epilepticus lasting longer than 4 hours (for KA) or 5 hours (for pilocarpine) were assigned 4 and 5 hours for seizure duration. For animals receiving PTZ, the seizure duration was defined as the period of tonic-clonic seizures. EEG recording in the hippocampus was conducted as previously described (Lian et al., 2004). After anesthesia, a recording electrode was placed in a burr hole centered at 3.0 mm posterior to bregma, 1.8 mm lateral to the midline and then lowered 3.0 mm. A ground screw and wire was placed over the frontal region in another burr hole. This assembly was fixed to the skull with dental cement.\nAdult rats received either D-F1,6BP, sodium valproate (VPA, 0.3 g/kg), 2-DG (0.25, 0.5 g/kg) or normal saline (vehicle) intraperitoneally followed 1 h later by one of the convulsants. The dose for VPA was based on experimental evidence that doses from 0.1 to 0.4 g/kg (ip) are effective in animal models (Bough and Eagles, 2001; Manent et al., 2007). Three doses of F1,6BP (0.25, 0.5 and 1 g/kg) were tested with this dosing schedule. Two additional groups were administered F1,6BP (0.5 or 1 g/kg, n=5) after pilocarpine. In this experiment, the F1,6BP was given intraperitoneally at the first behavioral seizure, which was chewing movements of the jaw. Two additional sets of animals were fed the classic ketogenic diet (No. F3666; Bio-Serv, Frenchtown, N.J.). One set of animals was given the diet beginning on postnatal day 22-26 (KD-Yng) and maintained on this diet for 4 weeks. Thus the seizures were tested in this group when the animals had reached approximately the same age (50-54 days) as the majority of the animals tested.\nThe latency to seizure onset, seizure score and seizure duration were averaged across animals in each group. Comparisons between groups were done with an analysis of variance with Bonferroni post hoc test. Statistical difference was defined as p<0.05."}, "[3]": {"conditions": "Markov et al., 2000; cited from earlier work"}, "[4]": {"assay": "Capillary depletion of brain samples (FDP in stripped vs whole cortex)", "format": "in vivo, Sprague-Dawley rats", "experimental": "Actual levels of FDP were determined by monitoring absorbance of reduced nicotinamide adenine dinucleotide (NADH) and treating the sample with aldolase (EC 4.1.2.13, 45 units mg-1 diluted 1:27 with distilled water), the enzyme which cleaves FDP into dihydroxyacetone phosphate (DAP) and D-glyceraldehyde 3-phosphate (GAP). DAP and GAP are interconverted by the enzyme triosephosphate isomerase (TIM, EC 5.3.3.1, 5290 units mg-1 diluted 1:120 with distilled water). […] After 5 min the absorbance was read 3 times at 340 nm, each reading 3 min apart. The average of these readings is the initial absorbance (Ai). This step removes any DAP or GAP in the sample and determines the baseline absorbance. Aldolase (0.01 ml) was then added and mixed to cleave FDP into DAP and GAP. Nine minutes after addition of the aldolase, the final absorbance (Af) was determined by 3 readings at 340 nm, each 6 minutes apart. The concentration of FDP in the sample was proportional to the difference in the initial and final absorbance. Two moles of NADH are oxidized for each mole of FDP. Blanks and a FDP standard sample were run in parallel with every assay. Each blank had 1.6 ml of the TEA buffer, 1.4 ml water and the mixture of TIM and GDH. […] Levels of FDP in blood were determined per ml, while levels in tissue samples were determined as a function of tissue weight. […]"}},
  "data": [
    {"smiles": "O=C(COP(=O)(O)O)[C@@H](O)[C@H](O)[C@H](O)COP(=O)(O)O", "note": "[F1,6BP, Fructose-1,6-bisphosphate]", "values": [
      {"measurement": "seizures per day (percent of baseline) vs non-treatment control group", "setting": "[1]; 2-way ANOVA", "result": "significantly different"},
      {"measurement": "animals having a seizure by day 7", "setting": "[1]; 7 animals", "result": 1},
      {"measurement": "latency to the seizures", "setting": "[2]; F1,6BP 0.25 g/kg, n=6", "result": "107 ± 6", "unit": "s"},
      {"measurement": "seizure duration", "setting": "[2]; F1,6BP 0.25 g/kg, n=6", "result": "18 ± 2", "unit": "s"},
      {"measurement": "latency to the seizures", "setting": "[2]; F1,6BP 0.5 g/kg, n=6", "result": "161 ± 16", "unit": "s"},
      {"measurement": "seizure duration", "setting": "[2]; F1,6BP 0.5 g/kg, n=6", "result": "12 ± 1", "unit": "s"},
      {"measurement": "animals with no seizures", "setting": "[2]; F1,6BP 1 g/kg", "result": "Three out of 8"},
      {"measurement": "latency to the seizures", "setting": "[2]; F1,6BP 1 g/kg, n=7", "result": "259 ± 32", "unit": "s"},
      {"measurement": "seizure duration", "setting": "[2]; F1,6BP 1 g/kg, n=7", "result": "11 ± 3", "unit": "s"},
      {"measurement": "FDP in blood of humans after administration of FDP", "setting": "[3]", "result": 3.39, "unit": "mg/dL"},
      {"measurement": "ratio of FDP in the stripped cortex to the FDP in whole cortex", "setting": "[4]; animals treated with FDP, n=7", "result": "0.91±0.01"},
      {"measurement": "levels of FDP in the endothelial cells compared to control", "setting": "[4]; sacrificed ≦2 hours or more than 12 hours after FDP", "result": "no difference"}
    ]}
  ]
}
